These results are taken from ChEMBL document CHEMBL4270527, “Discovery of phenylsulfonylfuroxan derivatives as gamma globin inducers by histone acetylation” (Eur J Med Chem, 2018).

The subject of data set [1] is CHO-K1. The data set is described as follows: Mutagenicity in CHOK1 cells assessed as nuclear division index at 100 uM after 24 hrs by Giemsa staining based microscopic analysis (reference value: 1.701 +/- 0.002). In kind it is toxicity, cell-based, Cricetulus griseus. The settings on record: chinese hamster, cho-k1, 24 h.
Data set [2] can be described thus: Stability of the compound in pH 7.4 phosphate buffered saline assessed as compound hydrolysis after 4 hrs by UV-HPLC analysis. In kind it is physicochemical. The conditions noted are these: read-out: Drug degradation.
The test system of data set [3] is CHO-K1. Kind of data set: Cytotoxicity against CHOK1 cells assessed as reduction in cell viability at 100 uM after 24 hrs by XTT assay relative to control. In kind it is cell-based, Cricetulus griseus. The settings on record: chinese hamster, cho-k1, 24 h. On the technique in general: Tetrazolium dyes change colour on reduction, which living cells bring about.
For data set [4], the system named is K562. Kind of data set: Activation of histone H3/H4 acetylation in human K562 cells assessed as increase in […] expression at 25 to 100 uM after 96 hrs by Western blot analysis. In kind it is cell-based. For orientation: Immunoblotting shows a protein as a band on a membrane.
Data set [5] has as its system CHO-K1. The data set is described as follows: Mutagenicity in CHOK1 cells assessed as frequency of micronucleus at 25 to 100 uM after 24 hrs by Giemsa staining based microscopic analysis. The format is toxicity, cell-based, Cricetulus griseus. The settings on record: chinese hamster, cho-k1, 24 h.
Data set [6] concerns CHO-K1. Kind of data set: Genotoxicity in CHOK1 cells assessed as increase in tail moment at 25 to 100 uM after 24 hrs by commet assay. In kind it is toxicity, cell-based, Cricetulus griseus. The conditions noted are these: chinese hamster, cho-k1, 24 h.
The target of data set [7] is Histone H4 (Homo sapiens) (UniProt P62805). The data set is described as follows: Activation of histone H4 acetylation in human K562 cells at 6.7 to 100 uM after 24 hrs by Western blot analysis. The format is cell-based.
The test system of data set [8] is Macrophage. The data set is described as follows: Inhibition of LPS-induced TNFalpha production in Swiss albino mouse macrophages at 12.5 uM after 24 hrs by ELISA relative to control. In kind it is functional. (In general: An ELISA detects its analyte on a solid surface through an enzyme-linked reagent.)
For data set [9], the system named is Macrophage. Kind of data set: Cytotoxicity against LPS-induced Swiss albino mouse macrophages assessed as cell viability at 6.2 to 50 uM after 24 hrs by MTT assay relative to control. The format is functional.
For data set [10], the system named is CHO-K1. The data set is described as follows: Cytotoxicity against CHOK1 cells assessed as reduction in cell viability at 25 uM after 24 hrs by XTT assay relative to control. The format is cell-based, Cricetulus griseus. The settings on record: chinese hamster, cho-k1, 24 h.
Data set [11] relates to K562. The data set is described as follows: Activation of histone H3 acetylation in human K562 cells at 6.7 to 100 uM after 24 hrs by Western blot analysis. In kind it is cell-based.
The test system of data set [12] is CHO-K1. The data set is described as follows: Mutagenicity in CHOK1 cells assessed as nuclear division index at 25 uM after 24 hrs by Giemsa staining based microscopic analysis (reference value: 1.701 +/- 0.002). In kind it is toxicity, cell-based, Cricetulus griseus. The settings on record: chinese hamster, cho-k1, 24 h.
The test system of data set [13] is Macrophage. Kind of data set: Inhibition of LPS-induced TNFalpha production in Swiss albino mouse macrophages at 6.2 uM after 24 hrs by ELISA relative to control. In kind it is functional.
Data set [14] concerns Platelet. The data set is described as follows: Antiplatelet activity in Wistar rat platelet rich plasma assessed as inhibition of ADP-induced platelet aggregation at 100 uM pretreated for 1 min followed by ADP addition by turbidimetric method relative to control. The format is functional.
Data set [15] relates to CHO-K1. The data set is described as follows: Cytotoxicity against CHOK1 cells assessed as reduction in cell viability at 50 uM after 24 hrs by XTT assay relative to control. The settings on record: chinese hamster, cho-k1, 24 h. In kind it is cell-based, Cricetulus griseus.
The subject of data set [16] is Mus musculus. Kind of data set: Antinociceptive activity in Swiss albino mouse assessed as decrease in number of acetic acid-induced abdominal constriction at 100 umol/kg, po pretreated for 1 hr followed by acetic-acid challenge for 10 mins measured for 20 mins relative to control. The arrangement: scale not given: the % may be the effect or the level left. The format is functional.

The test system of data set [17] is Macrophage. The data set is described as follows: Inhibition of LPS-induced TNFalpha production in Swiss albino mouse macrophages at 25 uM after 24 hrs by ELISA relative to control. In kind it is functional.
Data set [18] has as its system CHO-K1. The data set is described as follows: Mutagenicity in CHOK1 cells assessed as frequency of micronucleus binucleated cells at 25 to 100 uM after 24 hrs by Giemsa staining based microscopic analysis. The settings on record: chinese hamster, cho-k1, 24 h. In kind it is toxicity, cell-based, Cricetulus griseus.
Data set [19] deals with MAP kinase p38 (Homo sapiens) (UniProt O15264+Q15759+Q16539+P53778). The data set is described as follows: Activation of p38 MAPK phosphorylation in human K562 cells at 6.7 to 100 uM by Western blot analysis. The format is cell-based.
Data set [20] concerns CHO-K1. Kind of data set: Genotoxicity in CHOK1 cells assessed as increase in commet tail at 100 uM after 24 hrs by commet assay. The settings on record: chinese hamster, cho-k1, 24 h. The format is toxicity, cell-based, Cricetulus griseus.
In data set [21] the test system is CHO-K1. Kind of data set: Mutagenicity in CHOK1 cells assessed as nuclear division index at 50 uM after 24 hrs by Giemsa staining based microscopic analysis (reference value: 1.701 +/- 0.002). The format is toxicity, cell-based, Cricetulus griseus. The conditions noted are these: chinese hamster, cho-k1, 24 h.
The test system of data set [22] is K562. Kind of data set: Activation of histone H3/H4 acetylation in human K562 cells assessed as induction of […] production at 100 uM after 96 hrs by Western blot analysis. The format is cell-based.
Data set [23] concerns K562. Kind of data set: Activation of histone H3/H4 acetylation in human K562 cells assessed as increase in […] expression at 6.7 to 12.5 uM after 48 hrs by Western blot analysis. In kind it is cell-based.
Data set [24] concerns K562. The data set is described as follows: Activation of histone H3 acetylation in human K562 cells at 100 uM after 24 hrs by Western blot analysis. In kind it is cell-based.
Data set [25] concerns CHO-K1. Kind of data set: Mutagenicity in CHOK1 cells assessed as nuclear division index at 0.3 ug/ml after 24 hrs by Giemsa staining based microscopic analysis (reference value: 1.701 +/- 0.002). In kind it is toxicity, cell-based, Cricetulus griseus. The conditions noted are these: chinese hamster, cho-k1, 24 h.
The test system of data set [26] is Macrophage. Kind of data set: Inhibition of LPS-induced TNFalpha production in Swiss albino mouse macrophages at 50 uM after 24 hrs by ELISA relative to control. In kind it is functional.

The source made the active and inactive calls. The rule behind the calls is not given here.

Broadly, the inhibition is how much of the control response was suppressed. Take `O=C(N/N=C/c1ccc(Oc2no[n+]([O-])c2S(=O)(=O)c2ccccc2)cc1)c1ccc(N2C(=O)c3ccccc3C2=O)cc1`: the Activity_index was determined as 1.697 in data set [1], 1.691 in data set [12] and 1.69 in [21]. Besides, the degraded at 4 h in data set [2] came out at 30%. The Activity entry is “<= 30%” in data set [3]; “Non-Toxic” in data set [5]; “Non-Toxic” in data set [6]; more than 75% in data set [9]; 4% in data set [10]; 14% in [15]. In addition, the figures for the Activity in data set [16], in data set [18] and in [20] were 50.1%, “Non-Toxic” and “Non-Toxic”, respectively. The outcome in data set [4] and in [11] was Active. In addition, the result in data set [7] and in data set [19] was inactive. For the same compound, the inhibition at 12.5 µM in data set [8] amounted to 54.2%. The compound further registered an inhibition at 6.2 µM in data set [13] of 41%. Also, the inhibition at 100 µM in [14] is 76.1%. For the same compound, the inhibition at 25 µM in data set [17] came out at 76.5%.
Consider `CC(=O)Oc1ccccc1C(=O)O` [ASPIRIN], for which the inhibition at 100 µM in [14] stood at 5%.
Turning to `Cc1c(N(C)CS(=O)(=O)[O-])c(=O)n(-c2ccccc2)n1C.[Na+]` [DIPYRONE SODIUM], in data set [16], the Activity turned out to be 35%.
With `O=C(N/N=C/c1cccc(Oc2no[n+]([O-])c2S(=O)(=O)c2ccccc2)c1)c1ccc(N2C(=O)c3ccccc3C2=O)cc1`, the outcome in data set [22], in data set [7], in data set [23] and in data set [24] was Active. This compound had an inhibition at 12.5 µM in data set [8] of 64.9%. Besides, the Activity in data set [9] is recorded as more than 75%; in [16], 42%. Also, in data set [13], the inhibition at 6.2 µM was determined as 61%. In addition, the inhibition at 100 µM in data set [14] is 84%. In [17], this compound came in with an inhibition at 25 µM of 73.6%. The outcome in data set [19] was inactive.
Regarding `O=C(N/N=C/c1ccc2no[n+]([O-])c2c1)c1ccccc1N1C(=O)c2ccccc2C1=O`, the inhibition at 100 µM in data set [14] stood at 0%. Also, the Activity in [16] is 30.5%.
On to `COc1cccc2c1C(=O)c1c(O)c3c(c(O)c1C2=O)C[C@@](O)(C(=O)CO)C[C@@H]3O[C@H]1C[C@H](N)[C@H](O)[C@H](C)O1` [DOXORUBICIN], for which the Activity_index in [25] is 1.683.
With `O=C(N/N=C/c1c(-c2ccccc2)no[n+]1[O-])c1ccc(N2C(=O)c3ccccc3C2=O)cc1`, the Activity in data set [9] is recorded as more than 75%; in data set [16] it was 44.8%. Also, in data set [14], the inhibition at 100 µM was 26.5%.
In the case of `O=C(N/N=C/c1c(-c2ccccc2)no[n+]1[O-])c1ccccc1N1C(=O)c2ccccc2C1=O`, in data set [14], the inhibition at 100 µM was 17.2%. Besides, the Activity in [16] is on record as 36.2%.
Regarding `O=C(N/N=C/c1ccc2no[n+]([O-])c2c1)c1ccc(N2C(=O)c3ccccc3C2=O)cc1`, the inhibition at 12.5 µM in data set [8] was determined as 99.9%. For the same compound, the Activity in [9] is more than 75%; in data set [16] it was 48.3%. For the same compound, the inhibition at 100 µM in data set [14] was 2.8%. The inhibition at 25 µM in data set [17] was 99.5%. Further, in [26], the inhibition at 50 µM is 54.5%.
Turning to `O=C1CCC(N2C(=O)c3ccccc3C2=O)C(=O)N1` (configuration not stated) [THALIDOMIDE], in data set [26], testing at 50 µM gave an inhibition of 31.7%.
For `O=C(N/N=C/c1ccc2no[n+]([O-])c2c1)c1cccc(N2C(=O)c3ccccc3C2=O)c1`, the Activity in data set [9] is more than 75%; in data set [16] it was 40.5%. Also, in data set [14], the inhibition at 100 µM is 1.2%.
